{"source": "patent US8729082B2", "about": "“Substituted imidazoquinoxalines” (Bayer Intellectual Property GmbH, priority 2009, dated 2014)", "data": [{"molecular_target": "T1, human kinase Mps-1 (Homo sapiens, UniProt P33981)", "T1 construct": "N-terminally GST-tagged human full length recombinant Mps-1 kinase; purchased Invitrogen, Karslruhe, Germany PV4071", "T1 sequence (P33981 1-857)": "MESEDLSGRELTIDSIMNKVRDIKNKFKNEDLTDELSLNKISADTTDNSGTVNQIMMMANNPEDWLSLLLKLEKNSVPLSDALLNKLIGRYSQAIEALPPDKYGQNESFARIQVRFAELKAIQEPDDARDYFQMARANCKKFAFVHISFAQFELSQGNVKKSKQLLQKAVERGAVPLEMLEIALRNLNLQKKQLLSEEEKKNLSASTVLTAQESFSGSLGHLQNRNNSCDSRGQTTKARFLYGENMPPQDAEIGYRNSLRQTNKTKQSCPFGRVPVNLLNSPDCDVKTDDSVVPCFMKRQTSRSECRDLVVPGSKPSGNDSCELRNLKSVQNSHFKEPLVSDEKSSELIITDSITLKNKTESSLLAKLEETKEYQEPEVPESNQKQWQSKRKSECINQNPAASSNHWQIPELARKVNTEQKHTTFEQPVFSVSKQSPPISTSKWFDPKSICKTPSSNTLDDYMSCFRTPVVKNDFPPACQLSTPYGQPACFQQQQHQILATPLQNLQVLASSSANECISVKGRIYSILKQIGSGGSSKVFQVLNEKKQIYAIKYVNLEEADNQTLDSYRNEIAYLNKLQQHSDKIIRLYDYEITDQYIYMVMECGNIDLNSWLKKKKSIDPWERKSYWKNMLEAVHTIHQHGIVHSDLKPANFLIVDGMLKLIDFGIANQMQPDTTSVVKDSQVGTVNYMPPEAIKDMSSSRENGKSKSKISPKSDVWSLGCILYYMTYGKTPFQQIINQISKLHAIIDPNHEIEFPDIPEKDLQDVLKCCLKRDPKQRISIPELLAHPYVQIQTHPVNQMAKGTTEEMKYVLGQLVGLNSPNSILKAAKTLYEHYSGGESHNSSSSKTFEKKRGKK", "assay": "Mps-1 kinase assay (HTRF)", "assay_type": "biochemical", "settings": "lowATP; mean; read-out: Mps1 lowATP mean IC50", "outline": "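HTRF readout: EDTA-stopped reactions incubated 1 h with europium anti-phospho(Ser/Thr) antibody and streptavidin-XLent, emission ratio 665/620 nm after 350 nm excitation. Kinase step: compound pre-bound 15 min to ~1 nM GST-Mps-1, then 60 min at 22 °C with ATP and biotin-peptide substrate; inhibition scaled between no-inhibitor (0%) and no-enzyme (100%) controls.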", "units": {"IC50": "µM"}, "values": [{"smiles": "CCN(CC)C(=O)c1ccc(-c2cnc3c(NCC(C)C)nc4ccccc4n23)cc1", "note": "[Example 3-3, N,N-diethyl-4-{4-[(2-methylpropyl)amino]imidazo[1,2-a]quinoxalin-1-yl}benzamide]", "IC50": 19.7}, {"smiles": "CC(C)CNc1nc2ccccc2n2c(-c3ccc(C(=O)NCCO)cc3)cnc12", "note": "[Example 3-4, N-(2-hydroxyethyl)-4-{4-[(2-methylpropyl)amino]imidazo[1,2-a]quinoxalin-1-yl}benzamide]", "IC50": 1.79}, {"smiles": "CC(C)CNc1nc2ccccc2n2c(-c3ccc(C(=O)NCCCN4CCCC4=O)cc3)cnc12", "note": "[Example 3-5, 4-{4-[(2-methylpropyl)amino]imidazo[1,2-a]quinoxalin-1-yl}-N-[3-(2-oxopyrrolidin-1-yl)propyl]benzamide]", "IC50": 15.3}, {"smiles": "CC(C)CNc1nc2ccccc2n2c(-c3ccc(C(=O)NC4CCN(Cc5ccccc5)CC4)cc3)cnc12", "note": "[Example 3-7, N-(1-benzylpiperidin-4-yl)-4-{4-[(2-methylpropyl)amino]imidazo[1,2-a]quinoxalin-1-yl}benzamide]", "IC50": 15.8}, {"smiles": "CCNC(=O)c1ccc(-c2cnc3c(NCC(C)C)nc4ccccc4n23)cc1", "note": "[Example 3-8, N-ethyl-4-{4-[(2-methylpropyl)amino]imidazo[1,2-a]quinoxalin-1-yl}benzamide]", "IC50": 0.134}, {"smiles": "CC(C)CNc1nc2ccccc2n2c(-c3ccc(C(=O)Nc4ccc(S(N)(=O)=O)cc4)cc3)cnc12", "note": "[Example 3-9, 4-{4-[(2-methylpropyl)amino]imidazo[1,2-a]quinoxalin-1-yl}-N-(4-sulfamoylphenyl)benzamide]", "IC50": 6.59}, {"smiles": "CC(C)CNc1nc2ccccc2n2c(-c3ccc(C(=O)Nc4cccc(C(N)=O)c4)cc3)cnc12", "note": "[Example 3-10, N-(3-carbamoylphenyl)-4-{4-[(2-methylpropyl)amino]imidazo[1,2-a]quinoxalin-1-yl}benzamide]", "IC50": 0.865}, {"smiles": "CC(C)CNc1nc2ccccc2n2c(-c3ccc(C(=O)Nc4ccccc4C(N)=O)cc3)cnc12", "note": "[Example 3-11, N-(2-carbamoylphenyl)-4-{4-[(2-methylpropyl)amino]imidazo[1,2-a]quinoxalin-1-yl}benzamide]", "IC50": 19.4}, {"smiles": "CC(C)CNc1nc2ccccc2n2c(-c3ccc(C(=O)NCC(N)=O)cc3)cnc12", "note": "[Example 3-12, N-(2-amino-2-oxoethyl)-4-{4-[(2-methylpropyl)amino]imidazo[1,2-a]quinoxalin-1-yl}benzamide]", "IC50": 1.51}, {"smiles": "C#CCNC(=O)c1ccc(-c2cnc3c(NCC(C)C)nc4ccccc4n23)cc1", "note": "[Example 3-13, 4-{4-[(2-methylpropyl)amino]imidazo[1,2-a]quinoxalin-1-yl}-N-(prop-2-yn-1-yl)benzamide]", "IC50": 0.0412}, {"smiles": "CC(=O)Nc1cccc(NC(=O)c2ccc(-c3cnc4c(NCC(C)C)nc5ccccc5n34)cc2)c1", "note": "[Example 3-14, N-[3-(acetylamino)phenyl]-4-{4-[(2-methylpropyl)amino]imidazo[1,2-a]quinoxalin-1-yl}benzamide]", "IC50": 0.624}, {"smiles": "CC(C)CNc1nc2ccccc2n2c(-c3ccc(C(=O)NC(C)CO)cc3)cnc12", "note": "(centres unmarked) [Example 3-15, N-(1-hydroxypropan-2-yl)-4-{4-[(2-methylpropyl)amino]imidazo[1,2-a]quinoxalin-1-yl}benzamide]", "IC50": 1.09}, {"smiles": "CC(C)CNc1nc2ccccc2n2c(-c3ccc(C(=O)NCCc4ccncc4)cc3)cnc12", "note": "[Example 3-16, 4-{4-[(2-methylpropyl)amino]imidazo[1,2-a]quinoxalin-1-yl}-N-[2-(pyridin-4-yl)ethyl]benzamide]", "IC50": 5.87}, {"smiles": "CC(C)CNc1nc2ccccc2n2c(-c3ccc(C(=O)NCCC(N)=O)cc3)cnc12", "note": "[Example 3-17, N-(3-amino-3-oxopropyl)-4-{4-[(2-methylpropyl)amino]imidazo[1,2-a]quinoxalin-1-yl}benzamide]", "IC50": 7.72}, {"smiles": "CC(C)CNc1nc2ccccc2n2c(-c3ccc(C(=O)NCCN4CCNC4=O)cc3)cnc12", "note": "[Example 3-18, 4-{4-[(2-methylpropyl)amino]imidazo[1,2-a]quinoxalin-1-yl}-N-[2-(2-oxoimidazolidin-1-yl)ethyl]benzamide]", "IC50": 11.9}, {"smiles": "CNC(=O)CNC(=O)c1ccc(-c2cnc3c(NCC(C)C)nc4ccccc4n23)cc1", "note": "[Example 3-19, N-[2-(methylamino)-2-oxoethyl]-4-{4-[(2-methylpropyl)amino]imidazo[1,2-a]quinoxalin-1-yl}benzamide]", "IC50": 11.6}, {"smiles": "CC(C)CNc1nc2ccccc2n2c(-c3ccc(C(=O)NCCc4cccnc4)cc3)cnc12", "note": "[Example 3-20, 4-{4-[(2-methylpropyl)amino]imidazo[1,2-a]quinoxalin-1-yl}-N-[2-(pyridin-3-yl)ethyl]benzamide]", "IC50": 4.48}, {"smiles": "CC(C)CNc1nc2ccccc2n2c(-c3ccc(C(=O)NC4CC4F)cc3)cnc12", "note": "(centres unmarked) [Example 3-21, N-(2-fluorocyclopropyl)-4-{4-[(2-methylpropyl)amino]imidazo[1,2-a]quinoxalin-1-yl}benzamide]", "IC50": 0.00775}, {"smiles": "CC(C)CNc1nc2ccccc2n2c(-c3ccc(C(=O)NC4(C#N)CC4)cc3)cnc12", "note": "[Example 3-22, N-(1-cyanocyclopropyl)-4-{4-[(2-methylpropyl)amino]imidazo[1,2-a]quinoxalin-1-yl}benzamide]", "IC50": 0.214}, {"smiles": "CC(C)CNc1nc2ccccc2n2c(-c3ccc(C(=O)Nc4ccn(C)n4)cc3)cnc12", "note": "[Example 3-23, 4-{4-[(2-methylpropyl)amino]imidazo[1,2-a]quinoxalin-1-yl}-N-(1-methyl-1H-pyrazol-3-yl)benzamide]", "IC50": 0.997}, {"smiles": "CCn1nccc1C(=O)Nc1cccc(NC(=O)c2ccc(-c3cnc4c(NCC(C)C)nc5ccccc5n34)cc2)c1", "note": "[Example 3-24, 1-ethyl-N-{3-[(4-{4-[(2-methylpropyl)amino]imidazo[1,2-a]quinoxalin-1-yl}benzoyl)amino]phenyl}-1H-pyrazole-5-carboxamide]", "IC50": 3.61}, {"smiles": "CC(C)CNc1nc2ccccc2n2c(-c3ccc(C(=O)NC4(c5ccccn5)CC4)cc3)cnc12", "note": "[Example 3-25, 4-{4-[(2-methylpropyl)amino]imidazo[1,2-a]quinoxalin-1-yl}-N-[1-(pyridin-2-yl)cyclopropyl]benzamide]", "IC50": 1.42}, {"smiles": "CC(C)CNc1nc2ccccc2n2c(-c3ccc(C(=O)NCCS(N)(=O)=O)cc3)cnc12", "note": "[Example 3-26, 4-{4-[(2-methylpropyl)amino]imidazo[1,2-a]quinoxalin-1-yl}-N-(2-sulfamoylethyl)benzamide]", "IC50": 5.86}, {"smiles": "CC(C)CNc1nc2ccccc2n2c(-c3ccc(C(=O)Nc4cccc(NC(=O)c5ccncc5)c4)cc3)cnc12", "note": "[Example 3-27, N-{3-[(4-{4-[(2-methylpropyl)amino]imidazo[1,2-a]quinoxalin-1-yl}benzoyl)amino]phenyl}pyridine-4-carboxamide]", "IC50": 0.349}, {"smiles": "CC(C)CNc1nc2ccccc2n2c(-c3ccc(C(=O)Nc4cccc(NC(=O)c5cccnc5)c4)cc3)cnc12", "note": "[Example 3-28, N-{3-[(4-{4-[(2-methylpropyl)amino]imidazo[1,2-a]quinoxalin-1-yl}benzoyl)amino]phenyl}pyridine-3-carboxamide]", "IC50": 0.361}, {"smiles": "CC(C)CNc1nc2ccccc2n2c(-c3ccc(C(=O)NC4CC4C)cc3)cnc12", "note": "(centres unmarked) [Example 3-29, N-(2-methylcyclopropyl)-4-{4-[(2-methylpropyl)amino]imidazo[1,2-a]quinoxalin-1-yl}benzamide]", "IC50": 0.0138}, {"smiles": "CC(C)CNc1nc2ccccc2n2c(-c3ccc(C(=O)NC4(CO)CC4)cc3)cnc12", "note": "[Example 3-30, N-[1-(hydroxymethyl)cyclopropyl]-4-{4-[(2-methylpropyl)amino]imidazo[1,2-a]quinoxalin-1-yl}benzamide]", "IC50": 0.275}, {"smiles": "CC(C)CNc1nc2ccccc2n2c(-c3ccc(C(=O)Nc4ccc(CN5CCN(C)CC5)c(C(F)(F)F)c4)cc3)cnc12", "note": "[Example 3-31, N-{4-[(4-methylpiperazin-1-yl)methyl]-3-(trifluoromethyl)phenyl}-4-{4-[(2-methylpropyl)amino]imidazo[1,2-a]quinoxalin-1-yl}benzamide]", "IC50": 4.57}, {"smiles": "CC(C)CNc1nc2ccccc2n2c(-c3ccc(C(=O)NC4(C)CC4)cc3)cnc12", "note": "[Example 3-32, N-(1-methylcyclopropyl)-4-{4-[(2-methylpropyl)amino]imidazo[1,2-a]quinoxalin-1-yl}benzamide]", "IC50": 0.158}]}]}
